# In ChEMBL document CHEMBL4602605, “Fluoroquinolones structural and medicinal developments (2013-2018): Where are we now?” (Bioorg Med Chem, 2019):
# Key:
# Assay type in all cases: functional
# Escherichia coli [1] = test: Antibacterial activity against Escherichia coli NCDC 134 by single disk method
# Pseudomonas aeruginosa [2] = test: Antibacterial activity against Pseudomonas aeruginosa NCDC 105 by single disk method
# Bacillus subtilis = test: Antibacterial activity against Bacillus subtilis NCDC 71 by single disk method
# Paenibacillus polymyxa = test: Antibacterial activity against Paenibacillus polymyxa NCDC 64 by single disk method
# Staphylococcus aureus [3] = test: Antibacterial activity against Staphylococcus aureus NCDC 110 by single disk method
# Mus musculus = test: Analgesic activity in Swiss albino mouse assessed as acetic acid-induced writhing number at 50 mg/kg pretreated for 30 mins followed by acetic acid challenge and measured after 5 to 15 mins (reference value: 30.8 +/- 0.37)
# Metaphire posthuma = test: Anthelmintic activity against Pheretima posthuma assessed as mean paralysing time at 200 mg/ml
# [4] = tested on: Staphylococcus epidermidis; test: Antimicrobial activity against methicillin-susceptible Staphylococcus epidermidis clinical isolate incubated for 16 hrs by CLSI based agar dilution method
# [5] = tested on: Staphylococcus epidermidis; test: Antimicrobial activity against methicillin-resistant Staphylococcus epidermidis clinical isolate incubated for 16 hrs by CLSI based agar dilution method
# Staphylococcus aureus [6] = test: Antimicrobial activity against methicillin-susceptible Staphylococcus aureus clinical isolate incubated for 16 hrs by CLSI based agar dilution method
# Escherichia coli [7] = test: Antimicrobial activity against Escherichia coli ATCC 700603 incubated for 16 hrs by CLSI-based agar dilution method; settings: ATCC 700603, 16 h
# Klebsiella pneumoniae [8] = test: Antimicrobial activity against Klebsiella pneumoniae ATCC 29522 incubated for 16 hrs by CLSI-based agar dilution method; settings: ATCC 29522, 16 h
# Escherichia coli [9] = test: Antimicrobial activity against ESBL non-producing Escherichia coli ATCC 25922
# Klebsiella pneumoniae [10] = test: Antimicrobial activity against ESBL-producing Klebsiella pneumoniae ATCC 700603
# [11] = tested on: Acinetobacter calcoaceticus; test: Antimicrobial activity against Acinetobacter calcoaceticus ATCC 19606
# Enterobacter cloacae = test: Antimicrobial activity against Enterobacter cloacae ATCC 43560
# Pseudomonas aeruginosa [12] = test: Antimicrobial activity against Pseudomonas aeruginosa ATCC 27853
# Staphylococcus aureus [13] = test: Antimicrobial activity against methicillin-resistant Staphylococcus aureus clinical isolate incubated for 16 hrs by CLSI based agar dilution method
Structure (SMILES),MIC (Escherichia coli [1]) [µg/mL],MIC (Pseudomonas aeruginosa [2]) [µg/mL],MIC (Bacillus subtilis) [µg/mL],MIC (Paenibacillus polymyxa) [µg/mL],MIC (Staphylococcus aureus [3]) [µg/mL],MIC (Escherichia coli [9]) [µM],MIC (Klebsiella pneumoniae [10]) [µM],MIC [11] [µM],MIC (Enterobacter cloacae) [µM],MIC (Pseudomonas aeruginosa [12]) [µM],Activity (Mus musculus),Time (Metaphire posthuma) [min],further results
O=C(CN1CCN(c2cc3c(cc2F)c(=O)c(C(=O)O)cn3C2CC2)CC1)Nc1nc2ccc([N+](=O)[O-])cc2s1,35,45,25,55,50,–,–,–,–,–,14.2,22.8,–
CCn1cc(C(=O)O)c(=O)c2cc(F)c(N3CCN(CC(O)Cn4cc([N+](=O)[O-])nc4Cl)CC3)c(OC)c21 (configuration not stated),–,–,–,–,–,–,–,–,–,–,–,–,MIC [4]: 32 µg/mL; MIC [5]: > 32 µg/mL; MIC (Staphylococcus aureus [6]): > 32 µg/mL; MIC (Escherichia coli [7]): > 32 µg/mL; MIC (Klebsiella pneumoniae [8]): > 32 µg/mL
COc1cc(OC)cc(-c2nn(CN3CCN(c4cc5c(cc4F)c(=O)c(C(=O)O)cn5[C@@H]4C[C@@H]4F)CC3)c(=S)n2-c2ccccc2)c1,–,–,–,–,–,≤ 0.04,1.48,1.48,5.93,0.09,–,–,–
O=C(O)c1cn([C@@H]2C[C@@H]2F)c2cc(N3CCN(Cn4nc(-c5cc6ccccc6cn5)n(Cc5ccccc5)c4=S)CC3)c(F)cc2c1=O,–,–,–,–,–,≤ 0.04,1.47,11.8,≤ 0.04,1.47,–,–,–
O=C(O)c1cn([C@@H]2C[C@@H]2F)c2cc(N3CCN(Cn4nc(-c5ccccn5)n(-c5ccccc5)c4=S)CC3)c(F)cc2c1=O,–,–,–,–,–,≤ 0.05,1.63,6.5,≤ 0.05,1.63,–,–,–
COc1c(N2CCN(C(O)Cn3cc([N+](=O)[O-])nc3Cl)CC2)c(F)cc2c(=O)c(C(=O)O)cn(C3CC3)c12 (configuration not stated),–,–,–,–,–,–,–,–,–,–,–,–,MIC [4]: 0.25 µg/mL; MIC [5]: 0.03 µg/mL; MIC (Staphylococcus aureus [6]): 0.5 µg/mL; MIC (Staphylococcus aureus [13]): 8 µg/mL; MIC (Escherichia coli [7]): 4 µg/mL; MIC (Klebsiella pneumoniae [8]): > 32 µg/mL
O=C(O)c1cn([C@@H]2C[C@@H]2F)c2cc(N3CCN(Cn4nc(-c5cccnc5)n(Cc5ccccc5)c4=S)CC3)c(F)cc2c1=O,–,–,–,–,–,≤ 0.05,0.4,6.36,≤ 0.05,1.59,–,–,–
O=C(O)c1cn([C@@H]2C[C@@H]2F)c2cc(N3CCN(Cn4nc(-c5ccccn5)n(Cc5ccccc5)c4=S)CC3)c(F)cc2c1=O,–,–,–,–,–,≤ 0.05,0.79,≤ 0.05,0.79,0.79,–,–,–
CCn1cc(C(=O)O)c(=O)c2cc(F)c(N3CCN(CC(=O)Nc4nc5ccc(C)cc5s4)CC3)cc21,65,20,30,45,25,–,–,–,–,–,17.8,28.4,–
COc1cc(-c2nn(CN3CCN(c4cc5c(cc4F)c(=O)c(C(=O)O)cn5[C@@H]4C[C@@H]4F)CC3)c(=S)n2-c2ccccc2)cc(OC)c1OC,–,–,–,–,–,≤ 0.04,1.42,5.68,≤ 0.04,0.71,–,–,–

# Second part, led by results:
MIC (Escherichia coli [1]) [µg/mL],MIC (Pseudomonas aeruginosa [2]) [µg/mL],MIC (Bacillus subtilis) [µg/mL],MIC (Paenibacillus polymyxa) [µg/mL],MIC (Staphylococcus aureus [3]) [µg/mL],MIC (Escherichia coli [9]) [µM],MIC (Klebsiella pneumoniae [10]) [µM],MIC [11] [µM],MIC (Enterobacter cloacae) [µM],MIC (Pseudomonas aeruginosa [12]) [µM],Structure (SMILES),Activity (Mus musculus),Time (Metaphire posthuma) [min],further results
8,15,4,15,3,–,–,–,–,–,O=C(CN1CCN(c2cc3c(cc2F)c(=O)c(C(=O)O)cn3C2CC2)CC1)Nc1nc2ccc(Cl)cc2s1,13.8,26,–
6,65,10,30,5,–,–,–,–,–,O=C(CN1CCN(c2cc3c(cc2F)c(=O)c(C(=O)O)cn3C2CC2)CC1)Nc1nc2c(Cl)ccc(Cl)c2s1,15.6,32.6,–
60,20,75,25,4,–,–,–,–,–,COc1c(N2CCN(CC(=O)Nc3nc4c(Cl)cccc4s3)C(C)C2)c(F)cc2c(=O)c(C(=O)O)cn(C3CC3)c12 (configuration not stated),19.2,24.6,–
65,75,40,45,60,–,–,–,–,–,COc1c(N2CCN(CC(=O)Nc3nc4c([N+](=O)[O-])cccc4s3)C(C)C2)c(F)cc2c(=O)c(C(=O)O)cn(C3CC3)c12 (configuration not stated),1.63,1.2,–
20,45,35,110,40,–,–,–,–,–,Cc1ccc2nc(NC(=O)CN3CCN(c4cc5c(cc4F)c(=O)c(C(=O)O)cn5C4CC4)CC3)sc2c1,16.2,23.2,–
140,50,70,25,15,–,–,–,–,–,COc1c(N2CCN(CC(=O)Nc3nc4c(F)cccc4s3)C(C)C2)c(F)cc2c(=O)c(C(=O)O)cn(C3CC3)c12 (configuration not stated),15,23.6,–
